This assay concerns BT-549. Nature of the assay: inhibition of tumour cell growth, NCI panel, 48 h.

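In this assay, cells in 96-well plates receive the compound at five concentrations for 48 hours. Endpoints are linearly interpolated between the surrounding concentrations. GI50 is the concentration that inhibits growth by half.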 Activity calls are given as the source filed them. No stated cut-off is given here; in the data, active = GI50 up to about 1.1 µM and inactive = higher.

In the case of `COc1ccc2nc(NCN3C(=O)c4ccccc4C3=O)sc2c1`, the GI50 is > 100 µM (inactive).

On to `Oc1c2c(nc3cc4c(cc13)OCO4)-c1ccccc1CCC2`, for which the GI50 is > 50 µM (inactive).

As to `CCOC(=O)c1ccc(-c2cc(C)no2)[nH]1`, the GI50 is > 100 µM (inactive). As for `CCOC(=O)C1(C#N)C2(C#N)C(N)=NC(ON=C(C)C)(ON=C(C)C)C12C#N` (stereo unspecified), the GI50 is > 100 µM (inactive). The figure for `O=C(N/N=C/c1ccc([N+](=O)[O-])cc1)Nc1ccc(Br)cc1` is > 100 µM (inactive). On to `O=C1NC(=O)c2ccc([N+](=O)[O-])c3cccc1c23`, for which the GI50 is 19.2 µM (inactive).

Take `CCN(CC)c1ccc2cc(-c3nnc(-c4ccccc4)[nH]3)c(=O)oc2c1`: the GI50 was 25.2 µM (inactive). The figure for `CN(C)CC(C)(C)CN1c2ccccc2Sc2ccccc21` is 14 µM (inactive). As to `C/C1=C/C(C)CC(C)OC(=O)C(C)NC(=O)C(Cc2ccc(O)c(I)c2)N(C)C(=O)CNC(=O)C(C)C1` (stereo unspecified), the GI50 was < 0.01 µM (active). The figure for `C=C(C)C1CC=C(C)C2(C1)OCC(C)(C)C(C)O2` (stereo unspecified) is 17.3 µM (inactive). The figure for `CC(=O)OCC1OC(N2C(=O)NC(=O)C3C=C4CCCCC4=CC32)CC1OC(C)=O` (stereo unspecified) is > 100 µM (inactive). With `CCCC(=O)OCC1OC(n2cc(F)c(=O)[nH]c2=O)CC1O` (stereo unspecified), the GI50 was 0.929 µM (active). The figure for `CCOc1ccc2ccc3cccnc3c2n1` is > 100 µM (inactive). In the case of `N#CC1=C(N)OC2=C(CSc3ccccc32)C1c1ccc(Br)cc1` (stereo unspecified) it was 10.7 µM (inactive). The figure for `COc1cc2c(cc1OC)C1=CCC(c3ccccc3)[N+]1(C)CC2` (stereo unspecified) is > 100 µM (inactive). As for `Cc1ccc(C(=O)/C=C2\Nc3ccccc3N=C2NC23CC4CC(CC(C4)C2)C3)cc1`, the GI50 was > 10 µM (inactive). The figure for `CC1=C(C(=O)Nc2cccc3c2C(=O)NC3=O)CC(C(=O)Nc2cccc3c2C(=O)NC3=O)=C(C)N1` is > 100 µM (inactive); for `c1ccc2c(c1)nc1ccccn12` it is > 100 µM (inactive); for `Cn1c(C(C#N)c2cc(Cl)ncn2)nc2ccccc21` (stereo unspecified) it is > 100 µM (inactive).

For the compound `O=c1[nH]c(=O)n(C2CC(O)C(CO)O2)cc1/N=N/NCc1ccccc1` (stereo unspecified), the GI50 is > 100 µM (inactive). In the case of `CCOC(=O)C1=NN(c2ccccc2)C(=O)/C1=C\NC(=S)C(N)=S` it was 35 µM (inactive); in that of `Nn1c(SCC(=O)NCc2ccccc2)nc2ccccc2c1=O`, 73.3 µM (inactive); in that of `COC(=O)c1c(OC(C)=O)ccc2c1c1c(n2C)C(=O)c2ccccc2C1=O`, 17 µM (inactive). The figure for `O=P(O)(O)c1ccc(-c2ccc(I)cc2)cc1` is > 100 µM (inactive); for `C=CCN(C(C)=O)c1cc(OCc2ccccc2)c2c(c1)c(C)cn2S(=O)(=O)c1ccccc1` it is 11.4 µM (inactive); for `CCOP(=O)(OCC)[C@H]1OC(C)(C)O[C@@H]1CO` it is > 100 µM (inactive).

With `COc1cc(/C=C2\CCC/C(=C\c3ccc(OC(=O)CCCCC4CCSS4)c(OC)c3)C2=O)ccc1OC(=O)CCCCC1CCSS1` (stereo unspecified), the GI50 was > 100 µM (inactive). The figure for `COc1cc(/C=C2\C[C@H]3[C@@H]4CCc5cc(OCCN6CCCC6)ccc5[C@H]4CC[C@]3(C)C2=O)cc(OC)c1OC` is 15.5 µM (inactive). `C=CCc1[nH]c2c(OCc3ccccc3)cc(N(CC=C)C(C)=O)cc2c1C`: the GI50 is 15.8 µM (inactive). The figure for `O=C(Nn1c(-c2ccccc2)nc2ccccc2c1=O)c1ccccn1` is > 100 µM (inactive); for `CN(NC(=O)c1ccco1)C1=NCCCCN1` it is > 100 µM (inactive).

Consider `O=C(O)CN1C=C(C(=O)c2cc3ccccc3n2S(=O)(=O)c2ccccc2)CCC1`, for which the GI50 was 83.2 µM (inactive). As for `O=C1NC2CCCCC2N=C1CC(=O)c1ccc(Br)cc1` (stereo unspecified), the GI50 is 14.6 µM (inactive).

`CC(C)C1=CC23CCC4C(C)(C(=O)O)CCCC4(C)C2CC1C1C(=O)N(c2ccc(C(=O)O)cc2)C(=O)C13` (stereo unspecified): the GI50 was > 100 µM (inactive). Turning to `C/C=C1/CN2CCC3(O)c4ccccc4N4C=C(C(=O)OC)C1CC2C43O` (stereo unspecified), the GI50 was > 100 µM (inactive). In the case of `CCC[C@H]1C(=O)N=C(N)N1C(=O)OCc1ccccc1` it was > 100 µM (inactive).

Source of the values: ChEMBL document CHEMBL1201862, “PubChem BioAssay data set” (2004).
